Reference: US12187709B2 (Genentech, Inc., priority 2021, dated 2025)

Columns and labels:
[1] = target: Cbl-b (Homo sapiens (Human), UniProt Q13191); experiment: Cbl-b LCK Ub TR-FRET assay (Cbl-b Lck HTRF); format: biochemical; details: for IC50: Cbl-b LCK Ub TR-FRET; for fold-selectivity (Cbl-b over C-cbl): ratio C-cbl Lck HTRF IC50 / Cbl-b Lck HTRF IC50
Summary of the method: (§1)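 Signal is read once the detection mix has stood 20 min at ambient temperature. Curves are anchored by DMSO as maximum and by omission of LCK as minimum.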

[2] = target: c-Cbl (Homo sapiens (Human), UniProt P22681); experiment: C-Cbl LCK Ub TR-FRET assay (C-cbl Lck HTRF); format: biochemical
Summary of the method: as §1

[3] = target: Human Cbl-b (residues 40-426) (Homo sapiens (Human), UniProt Q13191); experiment: Cbl-b SPR assay; format: binding; details: for Fold of selectivity: C-cbl SPR Kd vs Cbl-b SPR Kd; for Kd: SPR, 20° C.
Summary of the method: (§2)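 Binding is measured by surface plasmon resonance against both isoforms, with double referencing and 1:1 kinetic fitting. Dissociation time is tuned to 4-5 half-lives.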

[4] = target: c-Cbl (residues 47-435) (Homo sapiens (Human), UniProt P22681); experiment: c-Cbl SPR assay; format: binding; details: 20° C.
Summary of the method: as §2

Chain of c-Cbl (residues 47-435) (P22681 47-435): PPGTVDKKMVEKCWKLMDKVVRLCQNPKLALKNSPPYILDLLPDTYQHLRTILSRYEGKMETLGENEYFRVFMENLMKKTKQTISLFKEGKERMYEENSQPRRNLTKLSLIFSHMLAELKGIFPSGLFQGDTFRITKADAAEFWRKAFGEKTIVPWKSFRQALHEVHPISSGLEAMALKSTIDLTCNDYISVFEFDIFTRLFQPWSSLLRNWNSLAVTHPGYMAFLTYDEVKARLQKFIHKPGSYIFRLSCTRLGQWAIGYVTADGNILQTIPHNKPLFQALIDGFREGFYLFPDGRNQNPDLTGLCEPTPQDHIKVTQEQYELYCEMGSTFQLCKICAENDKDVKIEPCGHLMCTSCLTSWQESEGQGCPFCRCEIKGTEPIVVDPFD
Chain of c-Cbl (P22681 47-435): as above
Chain of Cbl-b (Q13191 40-426): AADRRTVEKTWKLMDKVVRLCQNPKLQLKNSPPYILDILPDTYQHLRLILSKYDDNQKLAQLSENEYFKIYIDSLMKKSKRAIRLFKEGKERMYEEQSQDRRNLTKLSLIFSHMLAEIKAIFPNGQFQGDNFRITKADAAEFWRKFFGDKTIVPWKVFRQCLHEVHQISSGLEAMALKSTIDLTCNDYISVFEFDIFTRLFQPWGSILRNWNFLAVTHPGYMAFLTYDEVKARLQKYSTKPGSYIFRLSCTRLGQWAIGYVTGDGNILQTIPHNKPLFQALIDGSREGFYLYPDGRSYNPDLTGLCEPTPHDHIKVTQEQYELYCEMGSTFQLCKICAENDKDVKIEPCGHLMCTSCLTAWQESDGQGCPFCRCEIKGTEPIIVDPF
Chain of Human Cbl-b (residues 40-426) (Q13191 40-426): as above

Row | Compound | IC50 [1] | fold-selectivity (Cbl-b over C-cbl) [1] | IC50 [2] | Fold of selectivity [3] | Kd [3] | Kd [4]
1 | Cn1cnnc1[C@@H](C[C@H]1CCOC1)c1cccc(N2Cc3c(cc(CNC4(C)CCC4)cc3C(F)(F)F)C2=O)c1 [Compound 277, 2-(3-((S)-1-(4-methyl-4H-1,2,4-triazol-3-yl)-2-((S)-tetrahydrofuran-3-yl)ethyl)phenyl)-6-(((1-methylcyclobutyl)amino)methyl)-4-(trifluoromethyl)isoindolin-1-one] | 3600 nM | 2.3x | 8600 nM | 5.3× | 1400 nM | 7700 nM
2 | Cn1cnnc1[C@H](C[C@H]1CCOC1)c1cccc(N2Cc3c(cc(CNC4(C)CCC4)cc3C(F)(F)F)C2=O)c1 [Compound 278, 2-(3-((R)-1-(4-methyl-4H-1,2,4-triazol-3-yl)-2-((S)-tetrahydrofuran-3-yl)ethyl)phenyl)-6-(((1-methylcyclobutyl)amino)methyl)-4-(trifluoromethyl)isoindolin-1-one] | 5000 nM | 1.8x | 8900 nM | 4.8× | 1800 nM | 8600 nM
3 | Cn1cnnc1[C@]1(c2cccc(N3Cc4c(cc(CNC5(C)CCC5)cc4C(F)(F)F)C3=O)c2)C[C@H](OCC#N)C1 [Compound 280, 2-((1s,3s)-3-(4-methyl-4H-1,2,4-triazol-3-yl)-3-(3-(6-(((1-methylcyclobutyl)amino)methyl)-1-oxo-4-(trifluoromethyl)isoindolin-2-yl)phenyl)cyclobutoxy)acetonitrile] | 6.8 nM | 1.6x | 11 nM | 7.0× | 1.1 nM | 7.2 nM
4 | Cn1cnnc1[C@]1(c2cccc(N3Cc4c(cc(CNC5(C)CCC5)cc4C(F)(F)F)C3=O)c2)C[C@@H](OCC#N)C1 [Compound 281, 2-((1r,3r)-3-(4-methyl-4H-1,2,4-triazol-3-yl)-3-(3-(6-(((1-methylcyclobutyl)amino)methyl)-1-oxo-4-(trifluoromethyl)isoindolin-2-yl)phenyl)cyclobutoxy)acetontrile] | 6.7 nM | 1.3x | 9.5 nM | 6.3× | 1.1 nM | 7 nM

Results, then the molecule that gave them:

Row | IC50 [1] | fold-selectivity (Cbl-b over C-cbl) [1] | IC50 [2] | Fold of selectivity [3] | Kd [3] | Kd [4] | Compound
5 | 6.6 nM | 1.4x | 9.3 nM | 6.4× | 1.8 nM | 12 nM | Cn1cnnc1C1(c2cccc(N3Cc4c(cc(CNC5(C)CCC5)cc4C(F)(F)F)C3=O)c2)CCC1 [Compound 279, 2-(3-(1-(4-methyl-4H-1,2,4-triazol-3-yl)cyclobutyl)phenyl)-6-(((1-methylcyclobutyl)amino)methyl)-4-(trifluoromethyl)isoindolin-1-one]
6 | 410 nM | 6.5x | 2800 nM | 10× | 230 nM | 2300 nM | Cn1cnnc1C1(c2cccc(N3Cc4c(cc(CNC5(C)CCC5)cc4C(F)(F)F)C3=O)c2)CCOCC1 [Compound 282, 2-(3-(4-(4-methyl-4H-1,2,4-triazol-3-yl)tetrahydro-2H-pyran-4-yl)phenyl)-6-(((1-methylcyclobutyl)amino)methyl)-4-(trifluoromethyl)isoindolin-1-one]
7 | 81 nM | 2.7x | 220 nM | 5.3× | 43 nM | 220 nM | Cn1cnnc1C1(c2cccc(N3Cc4c(cc(CNC5(C)CCC5)cc4C(F)(F)F)C3=O)c2)CC1 [Compound 283, 2-(3-(1-(4-methyl-4H-1,2,4-triazol-3-yl)cyclopropyl)phenyl)-6-(((1-methylcyclobutyl)amino)methyl)-4-(trifluoromethyl)isoindolin-1-one]
8 | 6 nM | 1.1x | 6.5 nM | 1.1× | 0.7 nM | 0.8 nM | C[C@H](NC1(C)CCC1)c1cc2c(c(C(F)(F)F)c1)CN(c1cccc(C(c3nncn3C)C3COC3)c1)C2=O (stereo partly drawn) [Compound 285]
